Measurements reported in patent publication US20240293551A1, “USE OF ST-TYPE LIPID COMPOUNDS IN PREPARATION OF NUCLEIC ACID DELIVERY REAGENT AND RELATED PRODUCT” (INSTITUTE OF BASIC MEDICAL SCIENCES CHINESE ACADEMY OF …, priority 2021, published 2024).

Test system: PGY-sRNA-26
Test: In vivo delivery study of lipid-nucleic acid mixture (oral gavage, RT-qPCR of PGY-sRNA-26 in tissues)
Parameters: species or system mouse
Conditions: for delivery efficacy over each tissue and blood tested (broad-spectrum delivery): all tissues and blood tested; for oral delivery of single-stranded sRNA nucleic acids into mouse intestinal tissue: intestine
Outline: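 C57BL/6 male mice (~6 weeks, 20-24 g), fasted 12 h, were gavaged with 10 nmol 3′-methylated PGY-sRNA-26 mixed with 100 μg lipid (heated 90° C. 15 min), versus saline or free sRNA (n=4 each). After 12 h, blood and tissues were Trizol-extracted; sRNA quantified by stem-loop RT-qPCR relative to U6.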

[1] = C57BL/6 mice, gavage, 100 μg lipid: 10 nmol PGY-sRNA-26, 12 hours
[2] = C57BL/6 mice, gavage, 100 μg lipid: 10 nmol PGY-sRNA-26, 12 hours, brain

Row | SMILES | delivery efficacy over each tissue and blood tested (broad-spectrum delivery) [1] | oral delivery of single-stranded sRNA nucleic acids into mouse blood [1] | oral delivery of single-stranded sRNA nucleic acids into mouse brain tissue [2] | oral delivery of single-stranded sRNA nucleic acids into mouse femur [1] | oral delivery of single-stranded sRNA nucleic acids into mouse heart tissue [1] | oral delivery of single-stranded sRNA nucleic acids into mouse intestinal tissue [1] | oral delivery of single-stranded sRNA nucleic acids into mouse kidney tissue [1] | oral delivery of single-stranded sRNA nucleic acids into mouse liver tissue [1] | oral delivery of single-stranded sRNA nucleic acids into mouse lung tissue [1] | oral delivery of single-stranded sRNA nucleic acids into mouse spleen tissue [1] | oral delivery of single-stranded sRNA nucleic acids into mouse stomach tissue [1] | oral delivery of single-stranded sRNA nucleic acids into mouse brain tissue (mouse, in vivo, po)
1 | C=C1/C(=C\C=C2/CCC[C@]3(C)[C@@H]([C@H](C)/C=C/[C@@H](O)C4CC4)CC[C@@H]23)C[C@@H](O)C[C@@H]1O [Lipid 554] | exhibited the best delivery efficacy | can effectively orally deliver | can effectively orally deliver | can effectively orally deliver | can effectively orally deliver | can effectively orally deliver | can effectively orally deliver | can effectively orally deliver | can effectively orally deliver | can effectively orally deliver | can effectively orally deliver | –
2 | C[C@]12CCC(=O)C=C1CC[C@@H]1[C@@H]2[C@@H](O)C[C@]2(C)C(=O)CC[C@@H]12 [Lipid 555] | exhibited the best delivery efficacy | can effectively orally deliver | can effectively orally deliver | can effectively orally deliver | can effectively orally deliver | can effectively orally deliver | can effectively orally deliver | can effectively orally deliver | can effectively orally deliver | can effectively orally deliver | can effectively orally deliver | –
3 | CCCCC(=O)O[C@H]1CC[C@H]2[C@@H]3CCc4cc(O)ccc4[C@H]3CC[C@]12C [Lipid 556] | exhibited the best delivery efficacy | can effectively orally deliver | can effectively orally deliver | can effectively orally deliver | can effectively orally deliver | can effectively orally deliver | can effectively orally deliver | can effectively orally deliver | can effectively orally deliver | can effectively orally deliver | can effectively orally deliver | –
4 | CC(=O)[C@@]1(O)CC[C@H]2[C@@H]3C[C@H](C)C4=CC(=O)CC[C@]4(C)[C@H]3CC[C@@]21C [Lipid 557] | exhibited the best delivery efficacy | can effectively orally deliver | – | can effectively orally deliver | can effectively orally deliver | can effectively orally deliver | can effectively orally deliver | can effectively orally deliver | can effectively orally deliver | can effectively orally deliver | can effectively orally deliver | can effectively orally deliver
5 | C[C@@H]1CC[C@@]2(OC1)O[C@H]1C[C@H]3[C@@H]4CC[C@H]5C[C@@H](O)CC[C@]5(C)[C@H]4CC(=O)[C@]3(C)[C@H]1[C@@H]2C [Lipid 558] | exhibited the best delivery efficacy | can effectively orally deliver | can effectively orally deliver | can effectively orally deliver | can effectively orally deliver | can effectively orally deliver | can effectively orally deliver | can effectively orally deliver | can effectively orally deliver | can effectively orally deliver | can effectively orally deliver | –
6 | C[C@]12CC[C@H](O)C[C@H]1CC[C@@H]1[C@@H]2CC[C@]2(C)[C@@H](C3=CC(=O)OC3)CC[C@]12O [Lipid 559] | exhibited the best delivery efficacy | can effectively orally deliver | can effectively orally deliver | can effectively orally deliver | can effectively orally deliver | can effectively orally deliver | can effectively orally deliver | can effectively orally deliver | can effectively orally deliver | can effectively orally deliver | can effectively orally deliver | –
7 | C#C[C@]1(O)CC[C@H]2[C@@H]3CCC4=CC(=O)CC[C@@H]4[C@H]3CC[C@@]21CC [Lipid 560] | exhibited the best delivery efficacy | can effectively orally deliver | can effectively orally deliver | can effectively orally deliver | can effectively orally deliver | can effectively orally deliver | can effectively orally deliver | can effectively orally deliver | can effectively orally deliver | can effectively orally deliver | can effectively orally deliver | –
8 | C[C@]12CC[C@H](O)CC1=CC[C@@H]1[C@@H]2CC[C@]2(C)C(=O)CC[C@@H]12 [Lipid 561] | – | can effectively orally deliver | – | can effectively orally deliver | – | – | – | – | – | – | – | –
9 | C[C@]12CC[C@H]3[C@@H](CCC4=CC(=O)CC[C@@H]43)[C@@H]1CC[C@@H]2O [Lipid 562] | – | can effectively orally deliver | can effectively orally deliver | can effectively orally deliver | can effectively orally deliver | can effectively orally deliver | – | can effectively orally deliver | can effectively orally deliver | can effectively orally deliver | can effectively orally deliver | –
10 | C[C@]12CC[C@@H](O)C[C@@H]1CC[C@@H]1[C@@H]2CC[C@]2(C)C(=O)CC[C@@H]12 [Lipid 563] | exhibited the best delivery efficacy | can effectively orally deliver | can effectively orally deliver | can effectively orally deliver | can effectively orally deliver | can effectively orally deliver | can effectively orally deliver | can effectively orally deliver | can effectively orally deliver | can effectively orally deliver | can effectively orally deliver | –
